One may read the EC50 as the concentration giving half of the maximal effect.

Structures are written as SMILES. Like-named read-outs stand apart in the source and are kept apart here.

Holding throughout (assay type): cell-based
Assay [1] addresses T1, CNR1 (also known as CB1) (Homo sapiens, UniProt P21554).
T1 construct: β-galactosidase enzyme fragment (implied by the complementation read-out)
The note with it: read-out: CNR1 cAMP EC50.

The target in assay [2] is T1, CNR1 (also known as CB1). The settings on record: read-out: CNR1 β-Arrestin EC50.
Assay [3] has as its target T2, CNR2 (also known as CB2) (Homo sapiens, UniProt P34972).
T2 construct: β-galactosidase enzyme fragment (implied by the complementation read-out)
Briefly: cAMP competitive inhibition immunoassay (HitHunter), CNR2 activation. The settings on record: CNR2, cAMP assay. A general note: Cyclic AMP is a second messenger, typically raised through Gs and lowered through Gi signalling.

For assay [4], the target named is T2, CNR2 (also known as CB2). The assay is described as follows: β-arrestin GPCR assay (PathHunter), CNR2 activation. The settings on record: CNR2, β-arrestin recruitment. Background: Arrestin recruitment assays detect the binding of arrestin to an activated receptor.

T2 sequence (P34972 whole entry, species assumed, the tested form may be a part): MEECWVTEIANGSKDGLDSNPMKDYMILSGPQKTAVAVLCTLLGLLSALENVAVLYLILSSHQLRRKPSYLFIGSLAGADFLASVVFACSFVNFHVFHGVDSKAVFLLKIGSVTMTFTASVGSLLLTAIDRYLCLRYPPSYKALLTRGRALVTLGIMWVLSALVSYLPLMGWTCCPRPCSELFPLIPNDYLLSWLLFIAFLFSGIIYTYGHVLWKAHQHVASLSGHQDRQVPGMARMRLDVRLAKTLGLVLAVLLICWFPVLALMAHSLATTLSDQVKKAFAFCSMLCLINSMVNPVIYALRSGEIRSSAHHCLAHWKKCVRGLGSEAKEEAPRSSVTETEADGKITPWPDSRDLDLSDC
T1 sequence (P21554 whole entry, species assumed, the tested form may be a part): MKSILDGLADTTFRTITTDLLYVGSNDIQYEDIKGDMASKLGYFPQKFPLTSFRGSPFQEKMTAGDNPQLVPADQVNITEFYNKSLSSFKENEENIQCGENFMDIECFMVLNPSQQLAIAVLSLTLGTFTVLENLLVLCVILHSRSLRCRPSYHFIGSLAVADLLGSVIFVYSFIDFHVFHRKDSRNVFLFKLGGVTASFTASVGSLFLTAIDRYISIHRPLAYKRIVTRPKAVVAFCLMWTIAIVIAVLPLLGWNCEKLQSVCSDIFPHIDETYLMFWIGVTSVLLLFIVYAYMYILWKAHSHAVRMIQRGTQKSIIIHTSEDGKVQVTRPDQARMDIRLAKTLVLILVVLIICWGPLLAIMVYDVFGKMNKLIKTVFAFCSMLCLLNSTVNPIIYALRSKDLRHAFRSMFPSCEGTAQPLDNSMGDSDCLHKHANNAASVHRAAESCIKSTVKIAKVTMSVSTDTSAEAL

As for `CCCCCc1cc(O)c2c(c1)OC(C)(C)[C@@H]1CCC(CO)=C[C@@H]21` [Example 11-OH-THC], the concentration giving a half-maximal response (EC50) was 10.8 nM at CNR1 (also known as CB1) [1], greater than 16700 nM on CNR1 (also known as CB1) [2], 571 nM at CNR2 (also known as CB2) [3] and greater than 16700 nM on CNR2 (also known as CB2) [4].

The record behind these values is patent US10806707B2, “Cannabis oil compositions and methods for preparation thereof” (priority 2015, dated 2020).
